From patent publication US20100190755A1, “TETRACYCLINE COMPOUNDS FOR THE TREATMENT OF RHEUMATOID ARTHRITIS AND RELATED METHODS OF TREATMENT” (priority 2008, published 2010)
Converted amounts (≈) assume the structure as drawn. Values belong to the compound of their own block, whether it stands above or below them.

Key:
[1] = test system: cytokines (IL-1, IL-6, RANKL and MCP-1) and a matrix metalloproteinase (MMP-9); test: Paw extract biomarker ELISA, CIA mice: whole panel (statements in words); format: in vivo, mouse
Protocol: (§1) • 1. Male DBA/1 mice were immunized i.d. with an emulsion of 200 μg bovine type II collagen in Complete Freund's Adjuvant. • 2. On day 21, mice received i.d. boost of 100 μg collagen in Incomplete Freund's Adjuvant • 3. Compounds were administered i.p. daily for 7 days starting from disease onset (day 3-4 after boost). • 4. Foot swelling was measured by an engineering micrometer and disease severity was scored accordingly (1, erythema and mild swelling confined to the tarsal or ankle joint; 2, erythema and mild swelling extending from the ankle to the mid-foot; 3, erythema and moderate swelling extending from the ankle to the metatarsal joints; 4, erythema and severe swelling encompassing the ankle, foot, and digits). • 5. Change (Δ) of paw thickness=sum of paw thickness from 4 paws of a mouse (experimental)−sum of baseline paw thickness from 4 paws of the same mouse. • 6. % inhibition=cumulative A paw thickness (disease group−compound-treated group)/cumulative A paw thickness (disease group)
(§2) • 1. Paws were collected from mice after 5-7 days of dosing and dissected free of skin. • 2. The paws were then homogenized in ice-cold PBS (2 ml/4 paws/mouse) containing 1× protease inhibitor using a Polytron homogenizer. • 3. Debris and particles were removed from the homogenized samples by centrifugation. • 4. Liquid layers were collected for MMP-9, IL-1, IL-6, RANKL, MCP-1, and TNFα analysis using ELISA kits from R & D System.

[2] = test system: IL-6; test: Paw extract biomarker ELISA, CIA mice: IL-6; format: in vivo, mouse; conditions: paw extracts from CIA mice
Protocol: as §1, §2

[3] = test system: collagen-induced arthritis (CIA) in male DBA/1 mice; test: Murine collagen-induced arthritis (CIA) model, Example 2; format: in vivo, mouse
Protocol: Four non-antibacterial analogues of minocycline (J, W, AF and AT) were synthesized and tested in the murine model of the disease, collagen-induced arthritis (CIA) (See supra). Male DBA/1 mice were immunized intradermally with 200 μg of bovine type II collagen and boosted with collagen three weeks later. Minocycline and four non-antibacterial minocycline derivatives were administered i.p. beginning after disease onset. Paw thickness was measured and animals were scored daily.
as §1

[4] = test system: MMP-9; test: Paw extract biomarker ELISA, CIA mice: MMP-9; format: in vivo, mouse; conditions: paw extracts from CIA mice
Protocol: as §1, §2

[5] = test system: MCP-1; test: Paw extract biomarker ELISA, CIA mice: MCP-1; format: in vivo, mouse; conditions: paw extracts from CIA mice
Protocol: as §1, §2

[6] = test system: IL-1; test: Paw extract biomarker ELISA, CIA mice: IL-1; format: in vivo, mouse; conditions: paw extracts from CIA mice
Protocol: as §1, §2

[7] = test system: RANKL; test: Paw extract biomarker ELISA, CIA mice: RANKL; format: in vivo, mouse; conditions: paw extracts from CIA mice
Protocol: as §1, §2

[8] = test system: E. coli 25922; test: Antibacterial activity MIC, Gram- (Table 9); format: cell-based; conditions: Escherichia coli, CAMHB, 35° C., approximately 18 hr
Protocol: (§3) 2 mg of each compound is dissolved in 100 μl of DMSO. The solution is then added to cation-adjusted Mueller Hinton broth (CAMHB), which results in a final compound concentration of 200 μg per ml. The tetracycline compound solutions are diluted to 50 μL volumes, with a test compound concentration of 0.098 μg/ml. Optical density (OD) determinations are made from fresh log-phase broth cultures of the test strains. Dilutions are made to achieve a final cell density of 1×10^6 CFU/ml. At OD=1, cell densities for different genera should be approximately:
(§4) 50 μl of the cell suspensions are added to each well of microtiter plates. The final cell density should be approximately 5×10^5 CFU/ml. These plates are incubated at 35° C. in an ambient air incubator for approximately 18 hr. The plates are read with a microplate reader and are visually inspected when necessary. The MIC is defined as the lowest concentration of the tetracycline compound that inhibits growth.

[9] = test system: collagen-induced arthritis (CIA) in male DBA/1 mice; test: CIA model, Example 3 (cumulative scores vs untreated controls); format: in vivo; conditions: Mus musculus; Dose 25 mg/kg
Protocol: The CIA model data were acquired according to the following protocol: • 1. Male DBA/1 mice were anaesthetized by i.p. injection of ketamine/xylazine (1.25 mg/ml:0.25 mg/ml, 100 μl/mouse). • 2. Anaesthetized mice were immunized intradermally at the base of the tail with 0.1 or 0.2 ml of an emulsion composed of 100 or 200 μg bovine type II collagen in Complete Freund's Adjuvant (50 μl/spot x 2 or 4 spots). • 3. At day 21 after the immunization, mice received an intradermal boost of 100 μl of an emulsion composed of 100 μg bovine type II collagen in Incomplete Freund's Adjuvant (50 μl/spot x 2 spots) • 4. After onset of disease symptoms (usually 3-4 days after boost), tetracycline derivatives were administered daily into mice via intraperitoneal or oral routes for 8 to 15 days. Methotrexate (12 mg/kg/day) or dexmethasone (4 mg/kg/day) was used as a control for inflammation suppression. • 5. The disease severity was scored daily for 8-15 days after the appearance of the symptoms. Disease severity was graded as following: • a. Visual clinical score for the presence of inflammation in the fingers/toes of the forepaws and hindpaws: • 1. Erythema and mild swelling confined to the mid-foot (tarsals) or ankle joint • 2. Erythema and mild swelling extending from the ankle to the mid-foot • 3. Erythema and moderate swelling extending from the ankle to the metatarsal joints • 4. Erythema and severe swelling encompassing the ankle, foot, and digits. • b. Clinical swelling score for the presence of paw edema in the forepaws and hindpaws: • Paw thickness was measured daily by an engineering micrometer after isofluorane inhalation or ketamine/xylazine (1.25 mg/ml:0.25 mg/ml, 100 μl/mouse) i.p. injection.
Daily scores and paw swelling measurements for each treatment group of mice were added over the total observation period to obtain a cumulative score. Cumulative scores were compared between untreated controls and treated groups to determine tetracycline-induced inhibition.

[10] = Pharmacokinetics in rats after i.v. and oral dosing; format: in vivo; conditions: plasma, rat
Protocol: Pre-cannulated (jugular vein and carotid artery for i.v. group and carotid artery for oral group) male CD/IGS rats (approximately 250 g) were used. Rats were fasted overnight prior to dosing with access to food restored 2 hours after dosing. Rats were administered with approximately 0.25 mL compound (1 mg/kg dose) for i.v. route (via jugular vein over 20 seconds) or 0.5 mL solution (5 mg/kg dose) orally. Blood (300 μL) was collected in tubes with EDTA anticoagulant at various time points, centrifuged and plasma collected and stored frozen at −20° C. Animals were euthanized by CO2 following the final blood collection. Plasma was extracted (0.1% trifluoroacetic acid in 67% acetonitrile/33% water) and levels of compound quantified by HPLC/MS against a standard curve.

[11] = test system: E. coli ATCC25922 (tetracycline sensitive); test: E. coli MIC, broth micro-dilution per CLSI guidelines (Table 3); format: cell-based; conditions: Escherichia coli; E. coli ATCC25922, cation-adjusted Mueller Hinton broth
[12] = test system: S. aureus RN450; test: Antibacterial activity MIC, Gram+ (Table 9); format: cell-based; conditions: Staphylococcus aureus, CAMHB, 35° C., approximately 18 hr
Protocol: as §3, §4

[13] = 25 mg/kg/day i.p., dosed after disease onset

SMILES: CN(Cc1cnc2nc(N)nc(N)c2n1)c1ccc(C(=O)N[C@@H](CCC(=O)O)C(=O)O)cc1 [Methotrexate, methotrexate, reference compound]
- Footpad tissue levels of cytokines (IL-1, IL-6, RANKL and MCP-1) and MMP-9 after therapeutic treatment [1]: decreased
- Percent level of Biomarker Tissue [c] Compared to Untreated Control, IL-6 AVG [2]: 20%
- % Inhibition (Change in Paw Thickness) AVG ([3]; 12 mg/kg): 45%
- % Inhibition (Clinical Score) AVG ([3]; 12 mg/kg): 25%
- Change in Paw Thickness (mm) Mean ([3]; day 1 of dosing, 12 mg/kg/day i.p.): 0.77 mm
- Change in Paw Thickness (mm) Mean ([3]; day 2 of dosing, 12 mg/kg/day i.p.): 0.68 mm
- Change in Paw Thickness (mm) Mean ([3]; day 3 of dosing, 12 mg/kg/day i.p.): 0.71 mm
- Change in Paw Thickness (mm) Mean ([3]; day 4 of dosing, 12 mg/kg/day i.p.): 0.68 mm
- Change in Paw Thickness (mm) Mean ([3]; day 5 of dosing, 12 mg/kg/day i.p.): 0.67 mm
- Change in Paw Thickness (mm) Mean ([3]; day 6 of dosing, 12 mg/kg/day i.p.): 0.56 mm
- Change in Paw Thickness (mm) Mean ([3]; day 7 of dosing, 12 mg/kg/day i.p.): 0.45 mm
- Change in Paw Thickness (mm) Mean ([3]; day 8 of dosing, 12 mg/kg/day i.p.): 0.28 mm
- Percent level of Biomarker Tissue [c] Compared to Untreated Control, MMP-9 AVG [4]: 52%
- Percent level of Biomarker Tissue [c] Compared to Untreated Control, MCP-1 AVG [5]: 37%
- Percent level of Biomarker Tissue [c] Compared to Untreated Control, IL-1 AVG [6]: 16%

- MIC [8]: 1 µg/mL (≈ 2.19 µM)
- EC50 in inflammation suppression in CIA mice ([3]; CIA mice, i.p. daily): >50 mg/kg/day i.p.
- bioavailability ([10]; male, CD/IGS, after oral dosing of 5 mg/kg, read-out: PK Parameters (Rat) % F, fraction of absorption): 31%
- half-life ([10]; male CD/IGS rats, 1 mg/kg i.v. or 5 mg/kg oral, read-out: PK Parameters (Rat) T1/2 (converted)): 3.6 h
- MIC [11]: 1 µg/mL (≈ 2.19 µM)
- MIC [12]: 0.06 µg/mL (≈ 0.131 µM)
SMILES: CN(C)c1ccc(O)c2c1C[C@H]1C[C@H]3[C@H](N(C)C)C(O)=C(C(N)=O)C(=O)[C@@]3(O)C(O)=C1C2=O [Minocycline, minocycline, reference compound]
- Percent level of Biomarker Tissue [c] Compared to Untreated Control, RANKL AVG [7]: 99%
- Percent level of Biomarker Tissue [c] Compared to Untreated Control, IL-6 AVG [2]: 114%
- % Inhibition (Change in Paw Thickness) AVG [3, 13]: 22%
- % Inhibition (Clinical Score) AVG [3, 13]: 18%
- inhibition of the disease (CIA) ([3]; 50 mg/kg/day i.p.): 45%
- Change in Paw Thickness (mm) Mean ([3]; day 1 of dosing, 25 mg/kg/day i.p.): 0.74 mm
- Change in Paw Thickness (mm) Mean ([3]; day 2 of dosing, 25 mg/kg/day i.p.): 0.72 mm
- Change in Paw Thickness (mm) Mean ([3]; day 3 of dosing, 25 mg/kg/day i.p.): 0.78 mm
- Change in Paw Thickness (mm) Mean ([3]; day 4 of dosing, 25 mg/kg/day i.p.): 0.86 mm
- Change in Paw Thickness (mm) Mean ([3]; day 5 of dosing, 25 mg/kg/day i.p.): 0.93 mm
- Change in Paw Thickness (mm) Mean ([3]; day 6 of dosing, 25 mg/kg/day i.p.): 1.07 mm
- Change in Paw Thickness (mm) Mean ([3]; day 7 of dosing, 25 mg/kg/day i.p.): 0.92 mm
- Change in Paw Thickness (mm) Mean ([3]; day 8 of dosing, 25 mg/kg/day i.p.): 1.18 mm
- inhibition in vivo at 25 mg/kg [9]: 22%
- Percent level of Biomarker Tissue [c] Compared to Untreated Control, MMP-9 AVG [4]: 104%
- Percent level of Biomarker Tissue [c] Compared to Untreated Control, MCP-1 AVG [5]: 102%
- Percent level of Biomarker Tissue [c] Compared to Untreated Control, IL-1 AVG [6]: 119%
